Laboratory results as given in patent publication US20240148425A1, “COSMETIC COMPOSITION INTENDED FOR THE TREATMENT OF SKIN HYPERPIGMENTATION AND TREATMENT METHOD USING SAID COMPOSITION” (priority 2021, published 2024).

Columns and labels:
[1] = system: IL-1β marker in keratinocytes; experiment: IL-1β irritation marker in keratinocytes after cryogenic gas sequences; type: cell-based; conditions: +14° C. with 4 successive oscillations vs subzero dose (EC16, −16° C.), same level of keratinocyte viability
Excerpt: Finally, on the other constituent cells of the epidermis (keratinocytes), experiments have shown that oscillations within an above-zero temperature range caused a lesser effect on certain irritation markers compared to the application of a single cryogenic gas within a subzero temperature range while causing an identical reduction in the viability of the keratinocytes (see FIG. 3). […] Likewise, since the irritation is directly related to the mortality induced by keratinocytes, it could have been thought that for an identical reduction in viability, the irritation would be identical.
FIG. 3 is a graph showing the variation over time of the (IL-1β) marker of the irritation for keratinocytes subjected to two sequences making it possible to achieve the same level of viability, a sequence (EC16) located in a subzero temperature range (−16° C.) and the other sequence (EC14) in an above-zero temperature range (+14° C.).
The development of the invention has given rise to numerous experiments relating to the optimization of atomization sequences. These sequences were tested on cell culture models in order to determine, in particular, their incidence on the cell viability of the melanocytes and keratinocytes. The main markers of irritation were also measured.

[2] = system: keratinocytes; experiment: viability of keratinocytes by protein assay; type: cell-based; conditions: certain temperatures, especially +05° C.; patent attributes it to quiescence bias
Excerpt: Other tests conducted within the scope of the development of the invention have shown that an experiment bias existed in the measurement of the viability of the keratinocytes by protein assay.

[3] = system: melanocytes
Description: By way of example, when the viability of the melanocytes is compared between the application of a dose of atomized cryogenic gas making it possible to reach a target temperature of −10° C. (sequence referenced EC-10) on the epidermis from its normal starting temperature (34° C.) in an environment at room temperature (23° C.), and the application of a dose making it possible to reach a temperature of 0° C.
Therefore, experiments (cell cultures-in vitro) were conducted in the context of the invention to determine the effects of different temperatures (+10, +5, 0, −5, −10, −15 and 16° C.) on the mortality of the melanocytes. […] A control group of cells was tested at +23° C. After 24 h of treatment, the cell mortality was quantified by assaying the expression of the proteins (see FIG. 1).

[4] = system: actinic lentigines on the back of hands; conditions: cooling cycle of 3 to 5 seconds; biopsies 3 weeks after the treatment; cited from earlier work
[5] = system: skin pigmentation; conditions: brief 5-second cooling by atomizing liquid nitrogen at −196° C., margin 1 to 5 mm beyond the wound; cited from earlier work

SMILES | irritant effect (IL-1β marker) [1] | viability of the keratinocytes by protein assay [2] | decrease of viability of the melanocytes relative to the control group [3] [%] | reduction of the viability of the melanocytes [3] | mortality rate of melanocytes versus control group ([3]; EC+10 sequence (+10° C.), control at +23° C.) | viability of the melanocytes, sequence EC-10 (−10° C.) compared with EC00 (0° C.) ([3]; EC-10 vs EC00, start 34° C., room temperature 23° C.) | skin pigmentation in biopsies [4] | pigment change of skin [5]
CC(F)F [cryogenic gas, 1,1-difluoroethane] | less than that observed with a dose making it possible to achieve subzero temperatures | a reduction in the viability of the keratinocytes | 40 | about 40% | very different from that obtained for the control group | remains the same | – | –
N#N [liquid nitrogen] | – | – | – | – | – | – | reduces skin pigmentation | hypopigmentation persists
